# From paper PMC2248166, “Quantitative peptide binding motifs for 19 human and mouse MHC class I molecules derived using positional scanning combinatorial peptide libraries” (Immunome Research, 2008)
# What was measured:
# HLA B*5802 = HLA B*5802 (Homo sapiens, UniProt P01889, A329T/C349S/D201E/D98Y/E176V/E187L/E204Q/E69T/G107R/I218V/I90N/K202T/L105A/N104I/N87E/Q89R/Q94S/R106L/R155S/R180L/R86G/S101N/S121W/S35A/S48A/V127L/V306I/V36M/Y140S/Y91M); format: binding
# HLA B*3501 = HLA B*3501 (Homo sapiens, UniProt P01889, A329T/A93T/A95T/C349S/D201E/D98Y/E176V/E187L/E204Q/E69T/I218V/K202T/L119I/Q94N/R155S/R180L/S121R/S35A/S48A/T118I/V127L/V306I/V36M/Y140S/Y91F); format: binding
# HLA B*0801 = HLA B*0801 (Homo sapiens, UniProt P01889, A93T/A95T/D138N/E176V/E187T/K202T/Q94N/R180D/S35A/V36M/Y33D/Y91F); assay: biochemical; format: binding
# HLA A*3001 = HLA A*3001 (Homo sapiens, UniProt P04439, D140H/D185E/E176W/F33S/G80R/H175R/K168Q/R138E/R41S); assay: biochemical; format: binding
# HLA B*0702 = HLA B*0702 (Homo sapiens, UniProt P01889); format: binding; settings: positional scanning combinatorial 9-mer library; normalized to 1.0 for the best residue at each position
# HLA B*5401 = HLA B*5401 (Homo sapiens, UniProt P01889, A329T/C349S/D138N/D201E/E176V/E187T/E204Q/E69G/I76V/K202T/L119W/R155S/R180L/S121T/S35A/S48A/V127L/V306I/V36M/Y140L); format: binding
# H-2 K^k = H-2 K^k (Mus musculus, UniProt P04223); format: binding
# H-2 K^k, sequence (P01887 21-119): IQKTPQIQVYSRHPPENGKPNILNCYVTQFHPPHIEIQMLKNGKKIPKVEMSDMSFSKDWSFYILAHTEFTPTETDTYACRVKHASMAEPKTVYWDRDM
# H-2 K^k, sequence (P04223 22-369): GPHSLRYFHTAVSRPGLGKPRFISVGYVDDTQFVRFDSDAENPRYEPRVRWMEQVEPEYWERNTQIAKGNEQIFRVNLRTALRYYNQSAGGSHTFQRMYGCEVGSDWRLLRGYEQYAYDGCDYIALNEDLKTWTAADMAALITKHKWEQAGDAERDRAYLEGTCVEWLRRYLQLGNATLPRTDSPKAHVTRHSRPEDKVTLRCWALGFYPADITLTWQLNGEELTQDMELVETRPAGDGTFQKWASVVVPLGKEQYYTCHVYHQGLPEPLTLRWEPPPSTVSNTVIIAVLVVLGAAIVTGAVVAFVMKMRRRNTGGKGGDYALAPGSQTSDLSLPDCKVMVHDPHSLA
# HLA A*6802 = HLA A*6802 (Homo sapiens, UniProt P04439, A269V/D140Y/D185E/E176V/E277Q/E87N/F33Y/G231S/I121R/I166T/I218V/L180W/L300P/L318F/N151K/P208A/P217A/Q86R/R138H/R169H/S129P/T345S/V36M); format: binding
# HLA B*1503 = HLA B*1503 (Homo sapiens, UniProt P01889, A329T/A93T/A95T/C349S/D201E/D98Y/E187L/E204Q/K202T/N87E/Q94N/R155S/R180L/S121R/S35A/V306I/V36M/Y140S/Y91S); assay: biochemical; format: binding
# HLA B*5801 = HLA B*5801 (Homo sapiens, UniProt P01889, A329T/C349S/D201E/D98Y/E176V/E187L/E204Q/E69T/G107R/I218V/I90N/K202T/L105A/L119I/N104I/N87E/Q89R/Q94S/R106L/R155S/R180L/R86G/S101N/S121R/S35A/S48A/T118I/V127L/V306I/V36M/Y140S/Y91M); format: binding
# HLA B*2705 = HLA B*2705 (Homo sapiens, UniProt P01889, D138H/D201E/E176V/E204Q/G107R/H137Y/K202T/N104T/N87E/Q56L/Q94K/R106L/R155S/R180L/S101D/S121N/S48T/Y140D/Y33H/Y91C); format: binding; settings: positional scanning combinatorial 9-mer library; normalized to 1.0 for the best residue at each position
# HLA B*5301 = HLA B*5301 (Homo sapiens, UniProt P01889, A329T/A93T/A95T/C349S/D201E/D98Y/E176V/E187L/E204Q/E69T/G107R/I218V/K202T/L105A/L119I/N104I/Q94N/R106L/R155S/R180L/S101N/S121R/S35A/S48A/T118I/V127L/V306I/V36M/Y140S/Y91F); format: binding
# HLA A*0201 = HLA A*0201 (Homo sapiens, UniProt P04439, D140Y/D185E/D98H/E176V/E277Q/G131W/G231S/I119V/I121R/I166T/I218V/L300P/L318F/N151K/N90K/P208A/P217A/Q86G/Q94H/R138H/R169H/T345S); settings: positional scanning combinatorial 9-mer library; normalized to 1.0 for the best residue at each position
# HLA A*3201 = HLA A*3201 (Homo sapiens, UniProt P04439, A270S/D101S/D185E/E176V/E277Q/F133L/G103R/G107R/G231S/H175R/I121M/I218V/I322F/K168Q/L105A/L300P/L318F/M331R/P208A/P217A/Q94H/R106L/R138Q/S129P/T104I/T323A/T345S/V100E/V321M/V358M); assay: biochemical; format: binding
# HLA B*1501 = HLA B*1501 (Homo sapiens, UniProt P01889, A329T/A93T/A95T/C349S/D201E/D98Y/E187L/E204Q/E69M/E70A/K202T/N87E/Q94N/R155S/R180W/S121R/S35A/S48A/V306I/V36M/Y140S/Y91S); assay: biochemical; format: binding
# H-2 D^b = H-2 D^b (Mus musculus, UniProt P01899); format: binding
# H-2 D^b, sequence (P01887 21-119): as the sequence (P01887 21-119) above
# H-2 D^b, sequence (P01899 25-362): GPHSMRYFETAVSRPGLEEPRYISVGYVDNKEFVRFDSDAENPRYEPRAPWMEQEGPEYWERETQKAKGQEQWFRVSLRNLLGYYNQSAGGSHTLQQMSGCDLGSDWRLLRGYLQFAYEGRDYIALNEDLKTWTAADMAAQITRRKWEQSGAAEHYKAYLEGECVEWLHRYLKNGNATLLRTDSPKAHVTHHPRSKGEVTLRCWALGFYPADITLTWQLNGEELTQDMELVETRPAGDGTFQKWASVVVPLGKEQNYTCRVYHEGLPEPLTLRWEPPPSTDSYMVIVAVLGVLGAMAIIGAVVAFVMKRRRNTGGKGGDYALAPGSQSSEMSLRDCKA
# H-2 D^d = H-2 D^d (Mus musculus, UniProt P01900); format: binding
# H-2 D^d, sequence (P01900 whole entry, looked up): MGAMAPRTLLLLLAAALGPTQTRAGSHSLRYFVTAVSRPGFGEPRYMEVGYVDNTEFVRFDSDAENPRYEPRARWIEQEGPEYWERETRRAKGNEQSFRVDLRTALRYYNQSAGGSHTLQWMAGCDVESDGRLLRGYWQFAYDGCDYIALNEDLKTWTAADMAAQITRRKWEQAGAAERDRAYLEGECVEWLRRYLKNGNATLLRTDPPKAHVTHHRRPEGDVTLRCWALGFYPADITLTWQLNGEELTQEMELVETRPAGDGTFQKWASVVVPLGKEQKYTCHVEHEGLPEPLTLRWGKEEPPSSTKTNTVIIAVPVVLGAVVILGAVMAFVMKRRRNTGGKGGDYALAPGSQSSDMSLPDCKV
# HLA B*5101 = HLA B*5101 (Homo sapiens, UniProt P01889, A329T/A93T/A95T/C349S/D138N/D201E/D98Y/E187L/E204Q/E69T/G107R/I218V/K202T/L105A/L119W/N104I/Q94N/R106L/R155S/R180L/S101N/S121T/S35A/S48A/V306I/V36M/Y195H/Y91F); format: binding
sequence,measurement,setting,value
XRXXXXXXX [3064.0035],"Normalized average relative binding affinity (ARB), HLA B*5802",HLA B*5802,0.030
same,"Normalized average relative binding affinity (ARB), HLA B*3501",HLA B*3501,0.068
same,"Normalized average relative binding affinity (ARB), HLA B*0801",HLA B*0801,0.30
same,"Normalized average relative binding affinity (ARB), HLA A*3001",HLA A*3001,0.048
same,"Normalized average relative binding affinity (ARB), HLA B*0702",HLA B*0702,0.0078
same,"Normalized average relative binding affinity (ARB), HLA B*5401",HLA B*5401,0.0042
same,"Normalized average relative binding affinity (ARB), H-2 Kk",H-2 K^k,0.0071
same,"Normalized average relative binding affinity (ARB), HLA A*6802",HLA A*6802,0.0069
same,"Normalized average relative binding affinity (ARB), HLA B*1503",HLA B*1503,0.059
same,"Normalized average relative binding affinity (ARB), HLA B*5801",HLA B*5801,0.017
same,"Normalized average relative binding affinity (ARB), HLA B*2705",HLA B*2705,1.0
same,"Normalized average relative binding affinity (ARB), HLA B*5301",HLA B*5301,0.0045
same,"Normalized average relative binding affinity (ARB), HLA A*0201",HLA A*0201,0.0016
same,"Normalized average relative binding affinity (ARB), HLA A*3201",HLA A*3201,0.0090
same,"Normalized average relative binding affinity (ARB), HLA B*1501",HLA B*1501,0.024
same,"Normalized average relative binding affinity (ARB), H-2 Db",H-2 D^b,0.036
same,"Normalized average relative binding affinity (ARB), H-2 Dd",H-2 D^d,0.028
same,"Normalized average relative binding affinity (ARB), HLA B*5101",HLA B*5101,0.022
XSXXXXXXX [3064.0036],"Normalized average relative binding affinity (ARB), HLA B*5802",HLA B*5802,1.0
same,"Normalized average relative binding affinity (ARB), HLA B*3501",HLA B*3501,0.059
same,"Normalized average relative binding affinity (ARB), HLA B*0801",HLA B*0801,0.13
same,"Normalized average relative binding affinity (ARB), HLA A*3001",HLA A*3001,0.38
same,"Normalized average relative binding affinity (ARB), HLA B*0702",HLA B*0702,0.0043
same,"Normalized average relative binding affinity (ARB), HLA B*5401",HLA B*5401,0.050
same,"Normalized average relative binding affinity (ARB), H-2 Kk",H-2 K^k,0.014
same,"Normalized average relative binding affinity (ARB), HLA A*6802",HLA A*6802,0.27
same,"Normalized average relative binding affinity (ARB), HLA B*1503",HLA B*1503,0.13
same,"Normalized average relative binding affinity (ARB), HLA B*5801",HLA B*5801,1.0
same,"Normalized average relative binding affinity (ARB), HLA B*2705",HLA B*2705,0.012
same,"Normalized average relative binding affinity (ARB), HLA B*5301",HLA B*5301,0.031
same,"Normalized average relative binding affinity (ARB), HLA A*0201",HLA A*0201,0.0092
same,"Normalized average relative binding affinity (ARB), HLA A*3201",HLA A*3201,0.21
same,"Normalized average relative binding affinity (ARB), HLA B*1501",HLA B*1501,0.59
same,"Normalized average relative binding affinity (ARB), H-2 Db",H-2 D^b,0.80
same,"Normalized average relative binding affinity (ARB), H-2 Dd",H-2 D^d,0.022
same,"Normalized average relative binding affinity (ARB), HLA B*5101",HLA B*5101,0.10
XTXXXXXXX [3064.0037],"Normalized average relative binding affinity (ARB), HLA B*5802",HLA B*5802,0.79
same,"Normalized average relative binding affinity (ARB), HLA B*3501",HLA B*3501,0.042
same,"Normalized average relative binding affinity (ARB), HLA B*0801",HLA B*0801,0.038
same,"Normalized average relative binding affinity (ARB), HLA A*3001",HLA A*3001,0.77
same,"Normalized average relative binding affinity (ARB), HLA B*0702",HLA B*0702,0.014
same,"Normalized average relative binding affinity (ARB), HLA B*5401",HLA B*5401,0.028
same,"Normalized average relative binding affinity (ARB), H-2 Kk",H-2 K^k,0.0085
same,"Normalized average relative binding affinity (ARB), HLA A*6802",HLA A*6802,0.63
same,"Normalized average relative binding affinity (ARB), HLA B*1503",HLA B*1503,0.026
same,"Normalized average relative binding affinity (ARB), HLA B*5801",HLA B*5801,0.71
same,"Normalized average relative binding affinity (ARB), HLA B*2705",HLA B*2705,0.0033
same,"Normalized average relative binding affinity (ARB), HLA B*5301",HLA B*5301,0.022
same,"Normalized average relative binding affinity (ARB), HLA A*0201",HLA A*0201,0.038
same,"Normalized average relative binding affinity (ARB), HLA A*3201",HLA A*3201,1.0
same,"Normalized average relative binding affinity (ARB), HLA B*1501",HLA B*1501,0.29
same,"Normalized average relative binding affinity (ARB), H-2 Db",H-2 D^b,0.22
same,"Normalized average relative binding affinity (ARB), H-2 Dd",H-2 D^d,0.019
same,"Normalized average relative binding affinity (ARB), HLA B*5101",HLA B*5101,0.042
